As a reminder, the IC50 is the concentration needed to halve the response being measured. Low values mean greater potency, high ones weaker potency.

We go through 21 molecules from patent US20240140938A1, “PREPARATION OF TETRAHYDROINDAZOLE DERIVATIVES AS NOVEL DIACYLGLYCERIDE O-ACYLTRANSFERASE 2 INHIBITORS” (MERCK SHARP & DOHME LLC, priority 2020, published 2024).

Sequence of human DGAT2 (hDGAT2) (Q96PD7 whole entry): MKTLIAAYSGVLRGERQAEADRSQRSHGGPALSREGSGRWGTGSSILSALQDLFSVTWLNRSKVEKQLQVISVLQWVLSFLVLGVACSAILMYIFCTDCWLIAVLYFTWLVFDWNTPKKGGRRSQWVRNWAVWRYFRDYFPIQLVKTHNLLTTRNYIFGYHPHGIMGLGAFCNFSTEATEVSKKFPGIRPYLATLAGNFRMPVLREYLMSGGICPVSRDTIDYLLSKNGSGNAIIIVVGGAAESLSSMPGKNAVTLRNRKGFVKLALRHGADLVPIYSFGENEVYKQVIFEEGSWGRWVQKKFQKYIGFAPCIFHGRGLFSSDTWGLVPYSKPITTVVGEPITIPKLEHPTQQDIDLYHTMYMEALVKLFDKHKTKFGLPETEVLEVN

The test has as its target human DGAT2 (hDGAT2) (Homo sapiens (Human), UniProt Q96PD7). In words: DGAT2 Enzymatic Activity Assay. It counts as biochemical. To be noted: hDGAT2 Sf-9 membrane prep; 13C18-triolein product by LC/MS/MS; 25 μM diolein, 5 μM 13C oleoyl-CoA. As for the experimental part: Sf-9 insect cells were maintained in Grace's insect cell culture medium with 10% heated-inactivated fetal bovine serum, 1% Pluronic F-68 and 0.14 μg/ml Kanamycine sulfate at 27° C. in a shaker incubator. After infection with untagged baculovirus expressing human DGAT2 (hDGAT2) at multiplicity of infection (MOI) 3 for 48 hours, cells were harvested. Cell pellets were suspended in buffer containing 10 mM Tris-HCl pH 7.5, 1 mM EDTA, 250 mM sucrose and Complete Protease Inhibitor Cocktail (Sigma Aldrich), and sonicated on ice. Cell debris were removed by centrifugation at 2000×g for 15 minutes. Membrane fractions were isolated by ultracentrifugation (100,000×g), resuspended in the same buffer, and frozen (−80° C.) for later use. The protein concentration was determined with the Pierce™ BCA Protein Assay Kit (Thermo Fisher Scientific).
LC/MS/MS analyses were performed using Thermal Fisher's LX4-TSQ Vantage system. This system consists of an Agilent binary high-performance liquid chromatography (HPLC) pump and a TSQ Vantage triple quadrupole MS/MS instrument. For each sample, 2 μL samples from the top organic layer of in-plate liquid-liquid extraction were injected onto a Thermo Betabasic C4 column (2.1 mm×20 mm, 5 μm particle size). The samples were then eluted using the following conditions; mobile phase: Isopropanol: acetonitrile/10 mM ammonium formate=50/35/15 (v/v/v), flow rate: 0.8 mL/min, temperature: 25° C. Data was acquired in positive mode using a heated electrospray ionization (HESI) interface. […] The peak area was integrated by Xcalibur Quan software. The ratio between the ^13C18triolein generated in the reaction and spiked in internal standard ^13C21-triolein was used to generate percentage inhibition and IC50 values. Compound percentage inhibition was calculated by the following formula: Inhibition %=1−[(compound response−low control)/(high control−low control)]×100%.
DGAT2 activity was determined by measuring the amount of enzymatic product ^13C18-triolein (^13C-1,2,3-Tri(cis-9-octadecenoyl)glycerol) using the membrane prep mentioned above. The assay was carried out in ABgene 384-well assay plates in a final volume of 25 μL at rt.
In turn, `CC(C)(NC(=O)[C@@H]1CCc2c(-c3cccc(OC(F)F)c3)nn(C3CCOCC3)c2C1)c1ccc(C(F)(F)F)nc1` [Example 27, (R)-3-(3-(difluoromethoxy)phenyl)-1-(tetrahydro-2H-pyran-4-yl)-N-(2-(6-(trifluoromethyl)pyridin-3-yl)propan-2-yl)-4,5,6,7-tetrahydro-1H-indazole-6-carboxamide] displayed an IC50 of 128 nM. For `CC(C)n1nc(-c2cc(OC(F)F)ccc2F)c2c1C[C@H](C(=O)N[C@@]1(C)CCS(=O)(=O)C1)CC2` [Example 28, (R)-3-(5-(difluoromethoxy)-2-fluorophenyl)-1-isopropyl-N-((S)-3-methyl-1,1-dioxidotetrahydrothiophen-3-yl)-4,5,6,7-tetrahydro-1H-indazole-6-carboxamide] the value was 30.1 nM; for `CC(C)n1nc(-c2cc(OC(F)F)ccc2F)c2c1C[C@H](C(=O)N[C@]1(C)CCS(=O)(=O)C1)CC2` [Example 29, (R)-3-(5-(difluoromethoxy)-2-fluorophenyl)-1-isopropyl-N-((R)-3-methyl-1,1-dioxidotetrahydrothiophen-3-yl)-4,5,6,7-tetrahydro-1H-indazole-6-carboxamide], 60.1 nM; for `CC(C)n1nc(-c2cc(OC(F)F)ccc2F)c2c1C[C@H](C(=O)NC1(C)CCS(=O)(=O)CC1)CC2` [Example 30, (R)-3-(5-(difluoromethoxy)-2-fluorophenyl)-1-isopropyl-N-(4-methyl-1,1-dioxidotetrahydro-2H-thiopyran-4-yl)-4,5,6,7-tetrahydro-1H-indazole-6-carboxamide], 5.5 nM. The result for `CC(C)n1nc(-c2cccc(OC(F)F)c2)c2c1C[C@H](C(=O)NC1(C)CCS(=O)(=O)CC1)CC2` [Example 31, (R)-3-(3-(difluoromethoxy)phenyl)-1-isopropyl-N-(4-methyl-1,1-dioxidotetrahydro-2H-thiopyran-4-yl)-4,5,6,7-tetrahydro-1H-indazole-6-carboxamide] reads 24.7 nM; that for `CC(C)n1nc(-c2cccc(OC3CC3)c2)c2c1C[C@H](C(=O)NC1(C)CCS(=O)(=O)CC1)CC2` [Example 32, (R)-3-(3-cyclopropoxyphenyl)-1-isopropyl-N-(4-methyl-1,1-dioxidotetrahydro-2H-thiopyran-4-yl)-4,5,6,7-tetrahydro-1H-indazole-6-carboxamide], 29.1 nM.

As to `CCOc1cccc(-c2nn(C(C)C)c3c2CC[C@@H](C(=O)NC2(C)CCS(=O)(=O)CC2)C3)c1` [Example 33, (R)-3-(3-ethoxyphenyl)-1-isopropyl-N-(4-methyl-1,1-dioxidotetrahydro-2H-thiopyran-4-yl)-4,5,6,7-tetrahydro-1H-indazole-6-carboxamide], the IC50 turned out to be 3.3 nM.

`CCOc1cc(-c2nn(C(C)C)c3c2CC[C@@H](C(=O)NC2(C)CS(=O)(=O)C2)C3)c(F)cn1` [Example 34, (R)-3-(2-ethoxy-5-fluoropyridin-4-yl)-1-isopropyl-N-(3-methyl-1,1-dioxidothietan-3-yl)-4,5,6,7-tetrahydro-1H-indazole-6-carboxamide] displayed an IC50 of 117 nM. For `CC(C)n1nc(-c2cccc(OCC(F)(F)F)c2)c2c1C[C@H](C(=O)N[C@@]1(C)CCS(=O)(=O)C1)CC2` [Example 35, (R)-1-isopropyl-N-((S)-3-methyl-1,1-dioxidotetrahydrothiophen-3-yl)-3-(3-(2,2,2-trifluoroethoxy)phenyl)-4,5,6,7-tetrahydro-1H-indazole-6-carboxamide] the value was 35.2 nM; for `CC(C)n1nc(-c2cccc(OC(F)(F)C(F)F)c2)c2c1C[C@H](C(=O)NC1(C)CCS(=O)(=O)CC1)CC2` [Example 36, (R)-1-isopropyl-N-(4-methyl-1,1-dioxidotetrahydro-2H-thiopyran-4-yl)-3-(3-(1,1,2,2-tetrafluoroethoxy)phenyl)-4,5,6,7-tetrahydro-1H-indazole-6-carboxamide], 353 nM; for `CC(C)n1nc(-c2cc(OC3CC3)ncc2F)c2c1C[C@H](C(=O)NC1(C)CCS(=O)(=O)CC1)CC2` [Example 37, (R)-3-(2-cyclopropoxy-5-fluoropyridin-4-yl)-1-isopropyl-N-(4-methyl-1,1-dioxidotetrahydro-2H-thiopyran-4-yl)-4,5,6,7-tetrahydro-1H-indazole-6-carboxamide], 93.2 nM. The result for `CC(C)Oc1cc(-c2nn(C(C)C)c3c2CC[C@@H](C(=O)NC2(C)CCS(=O)(=O)CC2)C3)c(F)cn1` [Example 38, (R)-3-(5-fluoro-2-isopropoxypyridin-4-yl)-1-isopropyl-N-(4-methyl-1,1-dioxidotetrahydro-2H-thiopyran-4-yl)-4,5,6,7-tetrahydro-1H-indazole-6-carboxamide] reads 74.3 nM; that for `CCOc1cc(-c2nn(C(C)C)c3c2CC[C@@H](C(=O)NC2(C)CCS(=O)(=O)CC2)C3)c(Cl)cn1` [Example 39, (R)-3-(5-chloro-2-ethoxypyridin-4-yl)-1-isopropyl-N-(4-methyl-1,1-dioxidotetrahydro-2H-thiopyran-4-yl)-4,5,6,7-tetrahydro-1H-indazole-6-carboxamide], 7.7 nM. As to `CC(C)n1nc(-c2cc(OCC(F)F)ncc2F)c2c1C[C@H](C(=O)NC1(C)CCS(=O)(=O)CC1)CC2` [Example 40, (R)-3-(2-(2,2-difluoroethoxy)-5-fluoropyridin-4-yl)-1-isopropyl-N-(4-methyl-1,1-dioxidotetrahydro-2H-thiopyran-4-yl)-4,5,6,7-tetrahydro-1H-indazole-6-carboxamide], the IC50 stood at 4.6 nM. For `CC(C)n1nc(-c2cc(OC(F)F)ncc2F)c2c1C[C@H](C(=O)N[C@@]1(C)CCS(=O)(=O)C1)CC2` [Example 41, (R)-3-(2-(difluoromethoxy)-5-fluoropyridin-4-yl)-1-isopropyl-N-((S)-3-methyl-1,1-dioxidotetrahydrothiophen-3-yl)-4,5,6,7-tetrahydro-1H-indazole-6-carboxamide] the value was 139 nM; for `CC(C)n1nc(-c2cc(OC(F)F)cnc2C(F)F)c2c1C[C@H](C(=O)NC1(C)CCS(=O)(=O)CC1)CC2` [Example 42, (R)-3-(5-(difluoromethoxy)-2-(difluoromethyl)pyridin-3-yl)-1-isopropyl-N-(4-methyl-1,1-dioxidotetrahydro-2H-thiopyran-4-yl)-4,5,6,7-tetrahydro-1H-indazole-6-carboxamide], 296 nM. In the case of `CC(C)n1nc(-c2cc(OCC(F)(F)F)ncc2F)c2c1C[C@H](C(=O)NC1(C)CS(=O)(=O)C1)CC2` [Example 43, (R)-3-(5-fluoro-2-(2,2,2-trifluoroethoxy)pyridin-4-yl)-1-isopropyl-N-(3-methyl-1,1-dioxidothietan-3-yl)-4,5,6,7-tetrahydro-1H-indazole-6-carboxamide], the IC50 came to 14.1 nM. The result for `CC(C)n1nc(-c2cc(OCC(F)(F)F)ncc2F)c2c1C[C@H](C(=O)N[C@@]1(C)CCS(=O)(=O)C1)CC2` [Example 44, (R)-3-(5-fluoro-2-(2,2,2-trifluoroethoxy)pyridin-4-yl)-1-isopropyl-N-((S)-3-methyl-1,1-dioxidotetrahydrothiophen-3-yl)-4,5,6,7-tetrahydro-1H-indazole-6-carboxamide] reads 5.3 nM; that for `CC(C)n1nc(-c2cc(OCC(F)(F)F)ncc2F)c2c1C[C@H](C(=O)NC1(C)CCS(=O)(=O)CC1)CC2` [Example 45, (R)-3-(5-fluoro-2-(2,2,2-trifluoroethoxy)pyridin-4-yl)-1-isopropyl-N-(4-methyl-1,1-dioxidotetrahydro-2H-thiopyran-4-yl)-4,5,6,7-tetrahydro-1H-indazole-6-carboxamide], 18.4 nM; that for `[2H]C([2H])([2H])C([2H])(n1nc(-c2cc(OC(F)F)ccc2F)c2c1C[C@H](C(=O)NC1(C)CCS(=O)(=O)CC1)CC2)C([2H])([2H])[2H]` [Example 46, (R)-3-(5-(difluoromethoxy)-2-fluorophenyl)-N-(4-methyl-1,1-dioxidotetrahydro-2H-thiopyran-4-yl)-1-(propan-2-yl-d7)-4,5,6,7-tetrahydro-1H-indazole-6-carboxamide], 37.9 nM. For `[2H]C([2H])([2H])C([2H])(n1nc(-c2cc(OCC)ncc2F)c2c1C[C@H](C(=O)NC1(C)CCS(=O)(=O)CC1)CC2)C([2H])([2H])[2H]` [Example 47, (R)-3-(2-ethoxy-5-fluoropyridin-4-yl)-N-(4-methyl-1,1-dioxidotetrahydro-2H-thiopyran-4-yl)-1-(propan-2-yl-d7)-4,5,6,7-tetrahydro-1H-indazole-6-carboxamide] the value was 65.9 nM.
